31 compounds from patent US7964531B2, “3-phenoxy-4-pyridazinol derivatives and herbicidal composition containing the same” (Mitsui Chemicals Agro, Inc., priority 2001, dated 2011) can be followed below.

Structures are written as SMILES. Structures can show the parent of a compound that is named as a salt.

In general, melting point refers to the temperature of the solid-liquid transition. Compound `Oc1cc(Cl)nnc1Oc1ccccc1I` [Compound No. 127, 6-Chloro-3-(2-iodophenoxy)-4-pyridazinol] displayed a melting point of 216 to 217 °C.

The compound `Oc1cc(Cl)nnc1Oc1ccc(OCc2ccccc2)cc1` [Compound No. 2548, 3-[4-(Benzyloxy)phenoxy]-6-chloro-4-pyridazinol] registered a melting point of 170 to 180 °C.

As to `CC1(C)Cc2cccc(Oc3nnc(Cl)cc3O)c2O1` [Compound No. 540, 6-Chloro-3-[(2,2-dimethyl-2,3-dihydro-1-benzofuran-7-yl)oxy]-4-pyridazinol], the melting point lay in the range of 228 to 229.5 °C.

Regarding `CCC(C)c1cccc(C)c1Oc1nnc(Cl)cc1O` (stereo not shown) [Compound No. 804, 3-(2-s-Butyl-6-methylphenoxy)-6-chloro-4-pyridazinol], the melting point fell in the range of 187 to 189 °C.

`Cc1ccccc1Oc1nnc(Cl)cc1OC(=O)c1ccc(Cl)cc1Cl` [Compound No. 1603, 6-Chloro-3-(2-methylphenoxy)-4-pyridazinyl 2,4-dichlorobenzoate] had a melting point of 81 to 82.5 °C.

As for `Cc1ccc(S(=O)(=O)Oc2cc(Cl)nnc2Oc2cccc(C(C)(C)C)c2)cc1` [Compound No. 2235, 3-(3-tert-Butylphenoxy)-6-chloro-4-pyridazinyl 4-methylbenzenesulfonate], the melting point was in the range of 56 to 57 °C.

Compound `Oc1cc(Cl)nnc1Oc1c(F)cccc1F` [Compound No. 710, 6-Chloro-3-(2,6-difluorophenoxy)-4-pyridazinol] gave a melting point of 209 to 213 °C.

`Cc1ccc(N(C)C)cc1Oc1nnc(Cl)cc1O` [Compound No. 628, 6-Chloro-3-[5-(dimethylamino)-2-methylphenoxy]-4-pyridazinol] returned a melting point of 181 to 182 °C.

`CC1COc2cccc(Oc3nnc(Cl)cc3O)c21` (stereo not shown) [Compound No. 529, 6-Chloro-3-[(3-methyl-2,3-dihydro-1-benzofuran-4-yl)oxy]-4-pyridazinol] came in with a melting point of 238 to 245 °C.

The compound `CC=Cc1ccc(Cl)cc1Oc1nnc(Cl)cc1O` [Compound No. 680, 6-Chloro-3-[5-chloro-2-(1-propenyl)phenoxy]-4-pyridazinol] had a melting point of 221 to 224 °C.

Consider `C/C=C/c1cccc(/C=C/C)c1Oc1nnc(Cl)cc1O` [Compound No. 979, 6-Chloro-3-{2,6-di[(1E)-1-propenyl]phenoxy}-4-pyridazinol], for which the melting point was 163 to 164 °C.

Consider `Oc1cc(Cl)nnc1Oc1cccc(OCc2ccccc2)c1` [Compound No. 2547, 3-[3-(Benzyloxy)phenoxy]-6-chloro-4-pyridazinol], for which the melting point was in the range of 184 to 185 °C.

With `Cc1cccc(C2CC2)c1Oc1nnc(Cl)cc1OC(=O)c1ccc(C(C)(C)C)cc1` [Compound No. 1575, 6-Chloro-3-(2-cyclopropyl-6-methylphenoxy)-4-pyridazinyl 4-tert-butylbenzoate], the melting point lay in the range of 139 to 142 °C.

Regarding `Cc1cccc(C2CC2)c1Oc1nnc(Cl)cc1OC(=O)n1c(C)ccc1C` [Compound No. 3630, 6-Chloro-3-(2-cyclopropyl-6-methylphenoxy)-4-pyridazinyl 2,5-dimethyl-1H-pyrrole-1-carboxylate], the melting point lay within 208 to 210 °C.

On to `Cc1ccc(C)c(Oc2nnc(Cl)cc2O)c1` [Compound No. 621, 6-Chloro-3-(2,5-dimethylphenoxy)-4-pyridazinol], for which the melting point is 80 to 83 °C.

Compound `Cc1c(Oc2nnc(Cl)cc2O)cccc1[N+](=O)[O-]` [Compound No. 458, 6-Chloro-3-(2-methyl-3-nitrophenoxy)-4-pyridazinol] returned a melting point of 241 to 244 °C.

On to `Cc1cccc(C2CC2)c1Oc1nnc(Cl)cc1OC(=O)c1cccn1C` [Compound No. 3282, 6-Chloro-3-(2-cyclopropyl-6-methylphenoxy)-4-pyridazinyl 1-methyl-1H-pyrrole-2-carboxylate], for which the melting point fell in the range of 143 to 144 °C.

`Cc1cccc(C2CC2)c1Oc1nnc(Cl)cc1OC(=O)N1CCCC1` [Compound No. 1937, 6-Chloro-3-(2-cyclopropyl-6-methylphenoxy)-4-pyridazinyl 1-pyrrolidinecarboxylate]: the melting point lay in the range of 115 to 118 °C.

Consider `Cc1cc(C)c(Br)c(Oc2nnc(Cl)cc2O)c1` [Compound No. 1013, 3-(2-Bromo-3,5-dimethylphenoxy)-6-chloro-4-pyridazinol], for which the melting point lay in the range of 240 to 244 °C.

On to `Oc1cc(Cl)nnc1Oc1cccc(Cl)c1F` [Compound No. 438, 6-Chloro-3-(3-chloro-2-fluorophenoxy)-4-pyridazinol], for which the melting point was in the range of 187 to 195 °C.

`COC1(c2ccccc2Oc2nnc(Cl)cc2O)CC1` [Compound No. 202, 6-Chloro-3-[2-(1-methoxycyclopropyl)phenoxy]-4-pyridazinol] showed a melting point of 157 to 165 °C.

As to `Cc1ccc(S(=O)(=O)Oc2cc(Cl)nnc2Oc2ccc(Br)cc2C(C)C)cc1` [Compound No. 2248, 3-(4-Bromo-2-isopropylphenoxy)-6-chloro-4-pyridazinyl 4-methylbenzenesulfonate], the melting point lay in the range of 119 to 122 °C.

Take `Cc1cccc(C2CC2)c1Oc1nnc(Cl)cc1OC(=O)c1cc2ccccc2s1` [Compound No. 3504, 6-Chloro-3-(2-cyclopropyl-6-methylphenoxy)-4-pyridazinyl 1-benzothiophene-2-carboxylate]: the melting point was in the range of 105 to 107 °C.

`O=S(=O)(Oc1cc(Cl)nnc1Oc1ccccc1C1CC1)C(F)(F)F` (as salt: methanesulfonate) [Compound No. 2081, 6-Chloro-3-(2-cyclopropylphenoxy)-4-pyridazinyl trifluoromethanesulfonate] returned a melting point of 54 to 61 °C.

Compound `CC1CCc2c(Oc3nnc(Cl)cc3O)cccc21` (stereo not shown) [Compound No. 510, 6-Chloro-3-[(1-methyl-2,3-dihydro-1H-inden-4-yl)oxy]-4-pyridazinol] yielded a melting point of 228 to 230 °C.

The compound `Cc1cccc(C2CC2)c1Oc1nnc(Cl)cc1OC(=O)C(C)(C)Br` [Compound No. 2697, 6-Chloro-3-(2-cyclopropyl-6-methylphenoxy)-4-pyridazinyl 2-bromo-2-methylpropanoate] displayed a melting point of 69 to 71 °C.

In the case of `COc1cccc(OC)c1C(=O)Oc1cc(Cl)nnc1Oc1c(C)cccc1C1CC1` [Compound No. 3162, 6-Chloro-3-(2-cyclopropyl-6-methylphenoxy)-4-pyridazinyl 2,6-dimethoxybenzoate], the melting point is 127 to 128 °C.

In turn, `CCC(C)c1ccccc1Oc1nnc(Cl)cc1O` (stereo not shown) [Compound No. 135, 3-(2-s-Butylphenoxy)-6-chloro-4-pyridazinol] gave a melting point of 158 to 159 °C.

`Cc1ccc(C(C)C)cc1Oc1nnc(Cl)cc1O` [Compound No. 623, 6-Chloro-3-(5-isopropyl-2-methylphenoxy)-4-pyridazinol] gave a melting point of 168 to 169 °C.

With `COc1cccc(F)c1Oc1nnc(Cl)cc1O` [Compound No. 732, 6-Chloro-3-(2-fluoro-6-methoxyphenoxy)-4-pyridazinol], the melting point was 190 to 194 °C.

On to `CCCS(=O)(=O)Oc1cc(Cl)nnc1Oc1c(C)cccc1C1CC1` [Compound No. 2051, 6-Chloro-3-(2-cyclopropyl-6-methylphenoxy)-4-pyridazinyl 1-propanesulfonate], for which the melting point was in the range of 70.5 to 71.5 °C.
